Activity calls are given as the source filed them. The calls are words filed in the database; no cut-off is given here.
Columns and labels:
[1] = target: T1, Progesterone receptor (Homo sapiens) (UniProt P06401); assay: Agonist activity at gal-PR expressed in african green monkey CV1 cells co-expressing MH100 by luciferase reporter gene assay; type: functional, cell-based; details: CV-1
T1 sequence (whole entry): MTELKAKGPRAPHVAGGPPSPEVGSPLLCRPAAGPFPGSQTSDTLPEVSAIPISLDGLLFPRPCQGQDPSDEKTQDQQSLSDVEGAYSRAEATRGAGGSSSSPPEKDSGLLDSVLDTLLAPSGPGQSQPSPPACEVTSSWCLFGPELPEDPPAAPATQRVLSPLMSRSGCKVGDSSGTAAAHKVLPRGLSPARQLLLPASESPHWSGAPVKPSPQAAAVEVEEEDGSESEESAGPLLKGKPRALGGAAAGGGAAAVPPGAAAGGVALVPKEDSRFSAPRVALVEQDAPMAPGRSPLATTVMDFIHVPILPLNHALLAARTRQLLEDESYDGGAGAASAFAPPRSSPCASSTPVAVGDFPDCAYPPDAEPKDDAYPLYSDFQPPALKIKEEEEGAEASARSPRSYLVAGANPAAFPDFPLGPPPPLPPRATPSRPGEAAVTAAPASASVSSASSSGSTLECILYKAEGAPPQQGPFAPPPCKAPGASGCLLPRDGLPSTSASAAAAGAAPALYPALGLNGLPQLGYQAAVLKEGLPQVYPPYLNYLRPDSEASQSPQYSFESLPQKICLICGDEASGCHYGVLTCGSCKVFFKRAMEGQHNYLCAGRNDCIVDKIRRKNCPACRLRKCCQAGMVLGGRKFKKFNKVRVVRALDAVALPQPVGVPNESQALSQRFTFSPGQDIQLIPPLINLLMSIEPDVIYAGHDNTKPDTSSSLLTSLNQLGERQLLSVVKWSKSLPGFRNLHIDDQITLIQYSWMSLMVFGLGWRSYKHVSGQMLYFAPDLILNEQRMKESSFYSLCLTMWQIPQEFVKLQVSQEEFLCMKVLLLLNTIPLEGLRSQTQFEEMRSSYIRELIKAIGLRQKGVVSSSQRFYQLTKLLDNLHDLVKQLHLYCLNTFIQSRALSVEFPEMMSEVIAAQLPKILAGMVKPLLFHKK

[2] = target: T2, Androgen receptor (Homo sapiens) (UniProt P10275); assay: Agonist activity at human gal-AR expressed in african green monkey CV1 cells co-expressing MH100 with pGRIP1 co-factor up to 10 uM by luciferase reporter gene assay relative to control; type: functional, cell-based; details: CV-1
T2 sequence (whole entry): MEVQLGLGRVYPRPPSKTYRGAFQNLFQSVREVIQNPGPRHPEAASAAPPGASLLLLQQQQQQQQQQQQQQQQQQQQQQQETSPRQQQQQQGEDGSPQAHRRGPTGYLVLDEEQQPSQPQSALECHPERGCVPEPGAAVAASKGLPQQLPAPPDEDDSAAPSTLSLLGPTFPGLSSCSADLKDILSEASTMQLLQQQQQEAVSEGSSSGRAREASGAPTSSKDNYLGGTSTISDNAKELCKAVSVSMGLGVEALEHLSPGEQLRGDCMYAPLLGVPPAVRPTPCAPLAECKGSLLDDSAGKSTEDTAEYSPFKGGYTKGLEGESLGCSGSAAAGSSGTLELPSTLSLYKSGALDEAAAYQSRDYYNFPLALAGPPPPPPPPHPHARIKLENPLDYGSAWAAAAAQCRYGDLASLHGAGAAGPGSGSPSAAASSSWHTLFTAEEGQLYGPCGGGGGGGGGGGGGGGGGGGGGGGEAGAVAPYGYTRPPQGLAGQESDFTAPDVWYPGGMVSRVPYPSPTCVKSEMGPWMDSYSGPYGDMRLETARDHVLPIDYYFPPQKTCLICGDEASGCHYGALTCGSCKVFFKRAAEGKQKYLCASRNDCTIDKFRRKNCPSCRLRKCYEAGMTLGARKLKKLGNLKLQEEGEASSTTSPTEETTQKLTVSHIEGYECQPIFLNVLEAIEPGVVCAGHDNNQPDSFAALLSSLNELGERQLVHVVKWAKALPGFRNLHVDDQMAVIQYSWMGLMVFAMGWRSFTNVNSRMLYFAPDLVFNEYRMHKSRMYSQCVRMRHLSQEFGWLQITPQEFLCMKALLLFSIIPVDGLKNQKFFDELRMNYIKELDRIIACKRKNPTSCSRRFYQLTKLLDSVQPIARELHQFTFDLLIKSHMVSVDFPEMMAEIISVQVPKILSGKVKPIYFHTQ

[3] = target: Retinoic acid receptor RXR-alpha (Homo sapiens) (UniProt P19793); assay: Agonist activity at RXRalpha-LBD expressed in african green monkey CV1 cells co-expressing MH100 up to 10 uM by luciferase reporter gene assay relative to control; type: functional, cell-based; details: CV-1
Androgen receptor = Androgen receptor (Homo sapiens, UniProt P10275); assay: Antagonist activity at gal-AR expressed in african green monkey CV1 cells co-expressing MH100 with GRIP1 co-factor by luciferase reporter gene assay; type: functional, cell-based, CV-1
[4] = target: T3, Peroxisome proliferator-activated receptor alpha (Homo sapiens) (UniProt Q07869); assay: Antagonist activity at PPARalpha expressed in african green monkey CV1 cells co-expressing MH100 by luciferase reporter gene assay; type: functional, cell-based; details: CV-1
T3 sequence (whole entry): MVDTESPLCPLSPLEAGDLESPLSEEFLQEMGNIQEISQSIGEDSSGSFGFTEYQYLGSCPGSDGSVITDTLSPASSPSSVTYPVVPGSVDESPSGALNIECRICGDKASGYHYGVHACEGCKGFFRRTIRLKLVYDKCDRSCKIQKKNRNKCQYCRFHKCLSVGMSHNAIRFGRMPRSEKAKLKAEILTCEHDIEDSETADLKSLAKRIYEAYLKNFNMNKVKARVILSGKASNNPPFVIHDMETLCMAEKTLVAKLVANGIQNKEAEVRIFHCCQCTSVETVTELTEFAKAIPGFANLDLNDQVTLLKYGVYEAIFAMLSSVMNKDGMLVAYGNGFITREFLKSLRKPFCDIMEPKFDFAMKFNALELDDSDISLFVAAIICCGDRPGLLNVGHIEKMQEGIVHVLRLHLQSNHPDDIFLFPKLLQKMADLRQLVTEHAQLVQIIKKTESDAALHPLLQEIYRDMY

[5] = target: Estrogen receptor beta (Homo sapiens) (UniProt Q92731); assay: Agonist activity at gal-ERbeta expressed in african green monkey CV1 cells co-expressing MH100 by luciferase reporter gene assay; type: functional, cell-based; details: CV-1
[6] = target: T3, Peroxisome proliferator-activated receptor alpha (Homo sapiens); assay: Agonist activity at PPARalpha expressed in african green monkey CV1 cells co-expressing MH100 by luciferase reporter gene assay; type: functional, cell-based; details: CV-1

Sequence of Retinoic acid receptor RXR-alpha (Homo sapiens) (P19793 whole entry, the tested form may be a part): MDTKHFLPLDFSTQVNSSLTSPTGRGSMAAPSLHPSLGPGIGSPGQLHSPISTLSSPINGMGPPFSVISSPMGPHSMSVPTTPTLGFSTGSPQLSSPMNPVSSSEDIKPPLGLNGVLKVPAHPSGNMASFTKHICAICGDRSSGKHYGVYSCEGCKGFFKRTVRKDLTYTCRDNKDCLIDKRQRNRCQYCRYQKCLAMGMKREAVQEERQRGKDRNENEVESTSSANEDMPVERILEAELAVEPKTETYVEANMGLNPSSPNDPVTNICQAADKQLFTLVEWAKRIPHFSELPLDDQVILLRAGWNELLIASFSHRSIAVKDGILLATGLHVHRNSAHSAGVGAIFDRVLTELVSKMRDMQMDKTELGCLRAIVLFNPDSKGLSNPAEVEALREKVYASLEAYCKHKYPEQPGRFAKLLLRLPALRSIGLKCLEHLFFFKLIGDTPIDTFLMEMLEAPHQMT
Sequence of Estrogen receptor beta (Homo sapiens) (Q92731 whole entry): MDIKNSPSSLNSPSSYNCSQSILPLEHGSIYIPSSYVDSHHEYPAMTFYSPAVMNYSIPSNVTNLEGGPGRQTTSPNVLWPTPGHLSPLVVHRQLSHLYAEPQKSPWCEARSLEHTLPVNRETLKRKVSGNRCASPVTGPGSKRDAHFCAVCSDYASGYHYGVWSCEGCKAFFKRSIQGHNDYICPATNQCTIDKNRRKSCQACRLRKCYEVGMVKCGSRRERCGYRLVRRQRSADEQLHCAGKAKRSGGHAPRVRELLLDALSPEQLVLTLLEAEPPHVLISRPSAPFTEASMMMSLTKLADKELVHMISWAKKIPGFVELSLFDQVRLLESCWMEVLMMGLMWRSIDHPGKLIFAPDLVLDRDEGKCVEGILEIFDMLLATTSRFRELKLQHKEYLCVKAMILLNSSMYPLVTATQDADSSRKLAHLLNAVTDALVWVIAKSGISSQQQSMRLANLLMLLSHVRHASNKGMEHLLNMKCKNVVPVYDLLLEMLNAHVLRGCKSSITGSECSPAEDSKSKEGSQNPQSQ

CC(C)OC(=O)C1=CN(C(=O)c2ccc(F)c(F)c2)CC(C)(C)c2c1[nH]c1ccccc21 [TUROFEXORATE ISOPROPYL]
Activity [1]: inactive
Activity [2]: inactive
Activity [3]: inactive
IC50 (Androgen receptor): 10 µM
Activity [4]: inactive
Activity [5]: inactive
Activity [6]: inactive
